Source: patent US12516087B2, “Methods and compositions comprising therapeutic gamma peptide nucleic acid-based molecules” (UNIVERSITY OF IOWA RESEARCH FOUNDATION, priority 2022, dated 2026)
No end group written: not given here.

System: endothelial cells (HUVECs)
Experiment: Binding of TAMRA-labelled γPNA to cells (fluorescence intensity)
Assay type: cell-based, human
Conditions: 30 minutes incubation, fluorescence intensity normalized to protein
Description: FIGS. 11A and 11B. […] The cells were incubated with TAMRA-e-γP-122-I or TAMRA-γP-122-I for 30 minutes, washed three times, lysed, and the fluorescence intensity was measured and normalized to protein. RFI: Rhodamine (5-TAMRA) fluorescence intensity (561/600).
The inventors generated an endothelial cell targeting version of the disclosed γ-PNA inhibitors of miR-122 by fusing the peptide VHPK (SEQ ID NO: 4) to the γ-PNAs of the instant disclosure (“VHPK-γ-PNA fusion”). VHPK binds to vascular cell adhesion molecule 1 (VCAM1) which is highly expressed on the surface of endothelial cells.

TAMRA-e-γP-122-I: endothelial cell targeting γ-PNA miR-122 inhibitor fused to peptide VHPK (SEQ ID NO: 4), TAMRA-labelled (VHPKQHRQQSKQC; also: fused to γ-PNA miR-122 inhibitor, TAMRA-labelled, place not given here)
binding to endothelial cells (HUVECs) versus untagged γ-PNA: Increased binding
binding to endothelial cells versus HEK-293 cells: increased binding to endothelial cells as compared to human embryonic kidney (HEK-293) cells
binding to endothelial cells (HUVECs) versus untagged γ-PNA (listed as VHPK-γ-PNA fusion): increased binding
